Consider 18 molecules from patent US20220054469A1, “FARNESOID X RECEPTOR AGONISTS AND USES THEREOF” (Metacrine, Inc., priority 2018, published 2022).

As usually defined, the EC50 is the concentration giving half of the maximal effect.

The test deals with T1, hFXR (Homo sapiens, UniProt Q96RI1).
T1 construct: expressed in transfected cells; host or cells: CV-1 cells
T1 sequence (Q96RI1 1-486): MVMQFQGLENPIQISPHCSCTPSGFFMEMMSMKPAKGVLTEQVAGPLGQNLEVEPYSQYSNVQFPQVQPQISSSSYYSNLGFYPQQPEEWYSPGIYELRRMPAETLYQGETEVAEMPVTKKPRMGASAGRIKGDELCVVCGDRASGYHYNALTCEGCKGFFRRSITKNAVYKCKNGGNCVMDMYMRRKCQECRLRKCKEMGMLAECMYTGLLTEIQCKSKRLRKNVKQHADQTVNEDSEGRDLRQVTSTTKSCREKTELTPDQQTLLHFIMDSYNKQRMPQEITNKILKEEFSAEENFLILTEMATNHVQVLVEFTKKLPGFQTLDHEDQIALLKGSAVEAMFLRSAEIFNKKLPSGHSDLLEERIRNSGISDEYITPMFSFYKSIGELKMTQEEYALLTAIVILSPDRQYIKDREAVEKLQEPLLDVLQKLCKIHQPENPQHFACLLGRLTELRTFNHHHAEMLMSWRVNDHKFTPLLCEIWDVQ
T1 sequence (P19793 1-462 partner): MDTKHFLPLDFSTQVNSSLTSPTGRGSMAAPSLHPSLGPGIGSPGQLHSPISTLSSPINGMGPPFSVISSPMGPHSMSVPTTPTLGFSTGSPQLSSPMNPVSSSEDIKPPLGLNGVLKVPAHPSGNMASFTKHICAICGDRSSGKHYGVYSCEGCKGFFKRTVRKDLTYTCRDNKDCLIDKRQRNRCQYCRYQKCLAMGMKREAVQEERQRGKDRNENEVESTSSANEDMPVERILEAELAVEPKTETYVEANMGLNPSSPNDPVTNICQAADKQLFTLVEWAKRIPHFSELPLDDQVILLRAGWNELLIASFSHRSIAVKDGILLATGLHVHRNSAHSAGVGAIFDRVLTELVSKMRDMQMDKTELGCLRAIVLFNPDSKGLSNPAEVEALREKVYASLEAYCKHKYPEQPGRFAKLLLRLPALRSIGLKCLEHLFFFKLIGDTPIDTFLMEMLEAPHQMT
The experiment in a line: In Vitro FXR Assay (TK). Type of test: cell-based. As to conditions: CV-1 cells transfected with hFXR, hRXR, TK-ECRE-luc and pCMX-YFP; incubated with compound for 18 hrs; luminescence. The protocol:
Example B-1: In Vitro FXR Assay (TK)
CV-1 cells were seeded at a density of 2,000,000 cells in a T175 flask with DMEM+10% charcoal double-stripped FBS and incubated at 37° C. in 5% CO2 for 18 h (O/N).
After 18 h of incubation, the medium in the T175 flask was changed with fresh DMEM+10% charcoal super-stripped serum. In a polypropylene tube, 2500 μL OptiMEM (Life Technologies, Cat #31985-062) was combined with expression plasmids for hFXR, hRXR, TK-ECRE-luc and pCMX-YFP. The tube was then briefly vortexed and incubated at room temperature for 5 minutes. Transfection reagent (X-tremeGENE HP from Roche, Cat #06 366 236 001) was added to the OptiMEM/plasmid mixture vortexed and incubated at room temperature for 20 minutes. Following incubation, the transfection reagent/DNA mixture complex was added to cells in the T175 flask and the cells were incubated at 37° C. in 5% CO2 for 18 h (O/N).
Compounds were serially diluted in DMSO and added to transfected CV-1 cells. The cells were then incubated for 18 hrs. The next day cells were lysed and examined for luminescence.
Take `COc1ccc(C23CCC(CN(c4cccc(-c5cnn(C(C)(C)C)c5)c4)C(=O)[C@H]4CC[C@H](C(=O)O)CC4)(CC2)CC3)cc1C` [Compound 2.03, trans-4-((3-(1-(tert-Butyl)-1H-pyrazol-4-yl)phenyl)((4-(4-methoxy-3-methylphenyl)bicyclo[2.2.2]octan-1-yl)methyl)carbamoyl)cyclohexanecarboxylic acid]: the half-maximal effective concentration (EC50) was not above 50 nM.

With `COc1ccc(C23CCC(CN(c4cc(-c5coc(C(C)C)n5)ccn4)C(=O)[C@H]4CC[C@H](CC(=O)O)CC4)(CC2)CC3)cc1C` [Compound 4, trans-2-(4-((4-(2-Isopropyloxazol-4-yl)pyridin-2-yl)((4-(4-methoxy-3-methylphenyl)bicyclo[2.2.2]octan-1-yl)methyl)carbamoyl)cyclohexyl)acetic acid], the EC50 is not above 50 nM.

In the case of `COc1ccc(C23CCC(CN(c4cc(-c5nnc(C(C)C)o5)ccn4)C(=O)[C@H]4CC[C@H](CC(=O)O)CC4)(CC2)CC3)cc1C` [Compound 4.19, trans-2-(4-((4-(5-lsopropyl-1,3,4-oxadiazol-2-yl)pyridin-2-yl)((4-(4-methoxy-3-methylphenyl)bicyclo[2.2.2]octan-1-yl)methyl)carbamoyl)cyclohexyl)acetic acid], the half-maximal effective concentration (EC50) lay within 50 to 1000 nM.

Take `CN(C)c1ccc(C23CCC(CN(c4cccc(-c5cnn(C(C)(C)C)c5)c4)C(=O)[C@H]4CC[C@H](CC(=O)O)CC4)(CC2)CC3)cn1` [Compound 2, trans-2-(4-((3-(1-(tert-Butyl)-1H-pyrazol-4-yl)phenyl)((4-(6-(dimethylamino)pyridin-3-yl)bicyclo[2.2.2]octan-1-yl)methyl)carbamoyl)cyclohexyl)acetic acid]: the EC50 is not above 50 nM.

`COc1ccc(C23CCC(CN(c4cc(-c5cnn(C(C)C)c5)ccn4)C(=O)[C@H]4CC[C@H](CCC(=O)O)CC4)(CC2)CC3)cc1C` [Compound 1, trans-3-(4-((4-(1-Isopropyl-1H-pyrazol-4-yl)pyridin-2-yl)((4-(4-methoxy-3-methylphenyl)bicyclo[2.2.2]octan-1-yl)methyl)carbamoyl)cyclohexyl)propanoic acid]: the EC50 was not above 50 nM.

On to `COc1ccc(C23CCC(CN(c4cc(-c5cnc(C(C)(C)C)s5)ccn4)C(=O)[C@H]4CC[C@H](CC(=O)O)CC4)(CC2)CC3)cc1C` [Compound 4.17, trans-2-(4-((4-(2-(tert-Butyl)thiazol-5-yl)pyridin-2-yl)((4-(4-methoxy-3-methylphenyl)bicyclo[2.2.2]octan-1-yl)methyl)carbamoyl)cyclohexyl)acetic acid], for which the half-maximal effective concentration (EC50) is not above 50 nM.

`COc1ccc(C23CCC(CN(c4cc(-c5cnc(C6CC6)s5)ccn4)C(=O)[C@H]4CC[C@H](CC(=O)O)CC4)(CC2)CC3)cc1C` [Compound 4.15, trans-2-(4-((4-(2-Cyclopropylthiazol-5-yl)pyridin-2-yl)((4-(4-methoxy-3-methylphenyl)bicyclo[2.2.2]octan-1-yl)methyl)carbamoyl)cyclohexyl)acetic acid]: the EC50 was not above 50 nM.

As for `COc1ccc(C23CCC(CN(c4cc(-c5cnc(C(C)C)s5)ccn4)C(=O)[C@H]4CC[C@H](CC(=O)O)CC4)(CC2)CC3)cc1C` [Compound 4.16, trans-2-(4-((4-(2-Isopropylthiazol-5-yl)pyridin-2-yl)((4-(4-methoxy-3-methylphenyl)bicyclo[2.2.2]octan-1-yl)methyl)carbamoyl)cyclohexyl)acetic acid], the EC50 is not above 50 nM.

As for `COc1ccc(C23CCC(CN(c4cc(-c5cnn(C(C)C)c5)ccn4)C(=O)[C@H]4CC[C@H](CC(=O)O)CC4)(CC2)CC3)cc1C` [Compound 1.01, trans-2-(4-((4-(1-Isopropyl-1H-pyrazol-4-yl)pyridin-2-yl)((4-(4-methoxy-3-methylphenyl)bicyclo[2.2.2]octan-1-yl)methyl)carbamoyl)cyclohexyl)acetic acid], the EC50 is not above 50 nM.

In the case of `COc1ccc(C23CCC(CN(c4nccc(-c5cnn(C(C)C)c5)n4)C(=O)[C@H]4CC[C@H](CC(=O)O)CC4)(CC2)CC3)cc1C` (relative stereo) [Compound 4.09, trans-2-(4-((4-(1-Isopropyl-1H-pyrazol-4-yl)pyrimidin-2-yl)((4-(4-methoxy-3-methylphenyl)bicyclo[2.2.2]octan-1-yl)methyl)carbamoyl)cyclohexyl)acetic acid], the EC50 was not above 50 nM.

On to `COc1ccc([C@H]2CC[C@H](CN(c3cccc(-c4cnn(C(C)(C)C)c4)c3)C(=O)[C@H]3CC[C@H](C(=O)O)CC3)CC2)cc1C` [Compound 2.02, trans-4-((3-(1-(tert-Butyl)-1H-pyrazol-4-yl)phenyl)((trans-4-(4-methoxy-3-methylphenyl)cyclohexyl)methyl)carbamoyl) cyclohexanecarboxylic acid], for which the EC50 lay within 50 to 1000 nM.

In the case of `COc1ccc(C23CCC(CN(c4cccc(-c5cnn(C(C)C)c5)n4)C(=O)[C@H]4CC[C@H](CC(=O)O)CC4)(CC2)CC3)cc1C` (relative stereo) [Compound 4.06, trans-2-(4-((6-(1-Isopropyl-1H-pyrazol-4-yl)pyridin-2-yl)((4-(4-methoxy-3-methylphenyl)bicyclo[2.2.2]octan-1-yl)methyl)carbamoyl)cyclohexyl)acetic acid], the concentration for a half-maximal effect (EC50) is not above 50 nM.

With `COc1ccc(C23CCC(CN(c4cc(-c5cnn(C(C)(C)C)c5)ncn4)C(=O)[C@H]4CC[C@H](CC(=O)O)CC4)(CC2)CC3)cc1C` [Compound 4.07, trans-2-(4-((6-(1-(tert-Butyl)-1H-pyrazol-4-yl)pyrimidin-4-yl)((4-(4-methoxy-3-methylphenyl)bicyclo[2.2.2]octan-1-yl)methyl)carbamoyl)cyclohexyl)acetic acid], the EC50 fell in the range of 50 to 1000 nM.

As to `COc1ccc(C23CCC(CN(c4cc(-c5cnn(C(C)(C)C)c5)ccn4)C(=O)[C@H]4CC[C@H](C(=O)O)CC4)(CC2)CC3)cc1C` [Compound 4.03, trans-4-((4-(1-(tert-Butyl)-1H-pyrazol-4-yl)pyridin-2-yl)((4-(4-methoxy-3-methylphenyl)bicyclo[2.2.2]octan-1-yl)methyl)carbamoyl)cyclohexanecarboxylic acid], the EC50 was not above 50 nM.

In the case of `COc1ccc(C23CCC(CN(C(=O)[C@@H]4CCC[C@H](CC(=O)O)C4)c4cc(-c5cnn(C(C)C)c5)ccn4)(CC2)CC3)cc1C` (relative stereo) [Compound 5, cis-2-(3-((4-(1-isopropyl-1H-pyrazol-4-yl)pyridin-2-yl)((4-(4-methoxy-3-methylphenyl)bicyclo[2.2.2]octan-1-yl)methyl)carbamoyl)cyclohexyl)acetic acid], the EC50 was not above 50 nM.

For the molecule `COc1ncc(C23CCC(CN(c4cc(-c5cnn(C(C)(C)C)c5)ccn4)C(=O)[C@H]4CC[C@H](CC(=O)O)CC4)(CC2)CC3)cc1C` [Compound 4.13, trans-2-(4-((4-(1-(tert-Butyl)-1H-pyrazol-4-yl)pyridin-2-yl)((4-(6-methoxy-5-methylpyridin-3-yl)bicyclo[2.2.2]octan-1-yl)methyl)carbamoyl)cyclohexyl)acetic acid], the EC50 was not above 50 nM.

Consider `COc1ccc(C23CCC(CN(c4cc(-c5cnn(C(C)C)c5)ccn4)C(=O)[C@H]4CC[C@@H](C(=O)O)CC4)(CC2)CC3)cc1C` [Compound 3.01, cis-4-((4-(1-Isopropyl-1H-pyrazol-4-yl)pyridin-2-yl)((4-(4-methoxy-3-methylphenyl)bicyclo[2.2.2]octan-1-yl)methyl)carbamoyl)cyclohexanecarboxylic acid], for which the EC50 fell in the range of 50 to 1000 nM.

For the molecule `COc1ccc([C@H]2CC[C@H](CN(c3cccc(-c4cnn(C(C)C)c4)c3)C(=O)[C@H]3CC[C@H](C(=O)O)CC3)CC2)cc1C` [Compound 2.01, trans-4-((3-(1-Isopropyl-1H-pyrazol-4-yl)phenyl)((trans-4-(4-methoxy-3-methylphenyl)cyclohexyl)methyl)carbamoyl) cyclohexanecarboxylic acid], the EC50 is not above 50 nM.
